We go through 31 compounds from patent publication US20080058330A1, “Compounds and Combinations Thereof for Inhibiting Beta-Amyloid Production and Methods of Use Thereof” (Roskamp Research LLC, priority 2006, published 2008).

Test system in the first data set: not given
Assay: not given
Conditions: not given
One may read the melting point as the temperature of the solid-liquid transition. `CC1=C(C(=O)OC(C)(C)C)C(c2ccc(Br)cc2)C(C(=O)OC(C)(C)C)=C(C)N1` [Example 27, Di-tert-butyl 4-(4-bromophenyl)-1,4-dihydro-2,6-dimethylpyridine-3,5-dicarboxylate]: the melting point was 206 to 207 °C.

As for `CC1=C(C(=O)OC(C)(C)C)C(c2ccccc2I)C(C(=O)OC(C)(C)C)=C(C)N1` [Example 28, Di-tert-butyl 1,4-dihydro-4-(2-iodophenyl)-2,6-dimethylpyridine-3,5-dicarboxylate], the melting point is 184 to 185 °C. In turn, `CCOC(=O)C1=C(C)NC(C)=C(C(=O)OCC)C1c1cccc(Cl)c1Cl` [Example 31, Diethyl 4-(2,3-dichlorophenyl)-1,4-dihydro-2,6-dimethylpyridine-3,5-dicarboxylate] came in with a melting point of 125 to 126 °C. Same read-out and setting: then `CC1=C(C(=O)OC(C)(C)C)C(c2cccc(Cl)c2Cl)C(C(=O)OC(C)(C)C)=C(C)N1` [Example 32, Di-tert-butyl 4-(2,3-dichlorophenyl)-I14-dihydro-2,6-dimethylpyridine-3,5-dicarboxylate], with 144 to 145 °C; and `CCOC(=O)C1=C(C)NC(C)=C(C(=O)OCC)C1c1cc(Cl)ccc1Cl` [Example 34, Diethyl 4-(2,5-dichlorophenyl)-1,4-dihydro-2,6-dimethylpyridine-3,5-dicarboxylate], with 166.5 to 167.5 °C; and `CC1=C(C(=O)OC(C)(C)C)C(c2cc(Cl)ccc2Cl)C(C(=O)OC(C)(C)C)=C(C)N1` [Example 35, Di-tert-butyl 4-(2,5-dichlorophenyl)-1,4-dihydro-2,6-dimethylpyridine-3,5-dicarboxylate], with 181 to 183 °C.

`CCOC(=O)C1=C(C)NC(C)=C(C(=O)OCC)C1c1c(Cl)cccc1Cl` [Example 36, Diethyl 4-(2,6-dichlorophenyl)-1,4-dihydro-2,6-dimethylpyridine-3,5-dicarboxylate] came in with a melting point of 134 to 135 °C. Same read-out and setting: then `CCOC(=O)C1=C(C)NC(C)=C(C(=O)OCC)C1c1cc(Cl)cc(Cl)c1` [Example 37, Diethyl 4-(3,5-dichlorophenyl)-1,4-dihydro-2,6-dimethylpyridine-3,5-dicarboxylate], with 102 to 104 °C; and `CCOC(=O)C1=C(C)NC(C)=C(C(=O)OCC)C1c1cccc(F)c1F` [Example 38, Diethyl 4-(2,3-difluorophenyl)-1,4-dihydro-2,6-dimethylpyridine-3,5-dicarboxylate], with 161 to 162 °C; and `CC1=C(C(=O)OC(C)(C)C)C(c2cccc(F)c2F)C(C(=O)OC(C)(C)C)=C(C)N1` [Example 39, Di-tert-butyl 4-(2,3-difluorophenyl)-1,4-dihydro-2,6-dimethylpyridine-3,5-dicarboxylate], with 192 to 194 °C. The same measure, in the same setting: then `C=CCOC(=O)C1=C(C)NC(C)=C(C(=O)OCC=C)C1c1ccc(Br)cc1` [Example 40, Diallyl 4-(4-bromophenyl)-1,4-dihydro-2,6-dimethylpyridine-3,5-dicarboxylate], with 130 to 131 °C; and `CCOC(=O)C1=C(C)NC(C)=C(C(=O)OCC)C1c1ccc(F)c(Br)c1` [Example 41, Diethyl 4-(3-bromo-4-fluorophenyl)-1,4-dihydro-2,6-dimethylpyridine-3,5-dicarboxylate], with 118 to 119 °C; and `CC1=C(C(=O)OC(C)(C)C)C(c2ccc(F)c(Br)c2)C(C(=O)OC(C)(C)C)=C(C)N1` [Example 42, Di-tert-butyl 4-(3-bromo-4-fluorophenyl)-1,4-dihydro-2,6-dimethylpyridine-3,5-dicarboxylate], with 171 to 172 °C.

`CCOC(=O)C1=C(C)NC(C)=C(C(=O)OCC)C1c1ccc(Br)cc1F` [Example 43, Diethyl 4-(4-bromo-2-fluorophenyl)-1,4-dihydro-2,6-dimethylpyridine-3,5-dicarboxylate]: the melting point is 154 to 155 °C. Same read-out and setting: with `CC1=C(C(=O)OC(C)(C)C)C(c2ccc(Br)cc2F)C(C(=O)OC(C)(C)C)=C(C)N1` [Example 44, Di-tert-butyl 4-(4-bromo-2-fluorophenyl)-1,4-dihydro-2,6-dimethylpyridine-3,5-dicarboxylate] the figure was 187 to 188 °C. For the compound `COCCOC(=O)C1=C(C)NC(C)=C(C(=O)OCCOC)C1c1cccc(Br)c1` [Example 45, Bis(2-methoxyethyl) 4-(3-bromophenyl)-1,4-dihydro-2,6-dimethylpyridine-3,5-dicarboxylate], the melting point fell in the range of 124.5 to 125.5 °C. Still for that read-out and setting: with `COCCOC(=O)C1=C(C)NC(C)=C(C(=O)OCCOC)C1c1ccc(Br)cc1` [Example 46, Bis(2-methoxyethyl) 4-(4-bromophenyl)-1,4-dihydro-2,6-dimethylpyridine-3,5-dicarboxylate] the figure was 116 to 117 °C.

`CCOC(=O)C1=C(C)NC(C)=C(C(=O)OCC)C1c1cc(Br)ccc1F` [Example 47, Diethyl 4-(5-bromo-2-fluorophenyl)-1,4-dihydro-2,6-dimethylpyridine-3,5-dicarboxylate] had a melting point of 118 to 119 °C. Same read-out and setting: then `CC1=C(C(=O)OC(C)(C)C)C(c2cc(Br)ccc2F)C(C(=O)OC(C)(C)C)=C(C)N1` [Example 48, Di-tert-butyl 4-(5-bromo-2-fluorophenyl)-1,4-dihydro-2,6-dimethylpyridine-3,5-dicarboxylate], with 173 to 174 °C; and `CC1=C(C(=O)OC(C)(C)C)C(c2cccc(F)c2)C(C(=O)OC(C)(C)C)=C(C)N1` [Example 50, Di-tert-butyl 4-(3-fluorophenyl)-1,4-dihydro-2,6-dimethylpyridine-3,5-dicarboxylate], with 178 to 179 °C.

For `CCOC(=O)C1=C(C)NC(C)=C(C(=O)OCC)C1c1ccc(F)cc1` [Example 51, Diethyl 4-(4-fluorophenyl)-1,4-dihydro-2,6-dimethylpyridine-3,5-dicarboxylate], the melting point is 150 to 151 °C.

`CC1=C(C(=O)OC(C)(C)C)C(c2ccc(F)cc2)C(C(=O)OC(C)(C)C)=C(C)N1` [Example 52, Di-tert-butyl 4-(4-fluorophenyl)-1,4-dihydro-2,6-dimethylpyridine-3,5-dicarboxylate] showed a melting point of 149 to 150 °C.

Compound `COCC1=C(C(=O)OC)C(c2ccc(Br)cc2)C(C(=O)OC)=C(COC)N1` [Example 53, Dimethyl 4-(4-bromophenyl)-1,4-dihydro-2,6-bis(methoxymethyl)pyridine-3,5-dicarboxylate] came in with a melting point of 162 to 163 °C. The same measure, in the same setting: with `CCOC(=O)C1=C(C)N(Cc2ccccc2)C(C)=C(C(=O)OCC)C1c1ccc(Br)cc1` [Example 54, Diethyl 1-benzyl-4-(4-bromophenyl)-1,4-dihydro-2,6-dimethylpyridine-3,5-dicarboxylate] the figure was 168 to 169 °C. Compound `CC1=C(C(=O)OC(C)(C)C)C(c2ccc(C)cc2C)C(C(=O)OC(C)(C)C)=C(C)N1` [Example 55, Di-tert-butyl 1,4-dihydro-2,6-dimethyl-4-(2,4-dimethylphenyl)pyridine-3,5-dicarboxylate] yielded a melting point of 197 to 198 °C. The same measure, in the same setting: then `CCOC(=O)C1=C(C)NC(C)=C(C(=O)OC)C1c1ccccc1Cl` (stereo not drawn) [Example 56, 3-Ethyl 5-methyl 4-(2-chlorophenyl)-1,4-dihydro-2,6-dimethylpyridine-3,5-dicarboxylate], with 125 to 127 °C.

The compound `COC(=O)C1=C(C)NC(C)=C(C(C)=O)C1c1ccccc1Cl` (stereo not drawn) [Example 57, Methyl 5-acetyl-4-(2-chlorophenyl)-1,4-dihydro-2,6-dimethylpyridine-3-carboxylate] registered a melting point of 183 to 184 °C. On the same count and under the same terms, with `CCOC(=O)C1=C(C)NC(C)=C(C(=O)OC)C1c1ccccc1Br` (stereo not drawn) [Example 58, 3-Ethyl 5-methyl 4-(2-bromophenyl)-I14-dihydro-2,6-dimethylpyridine-3,5-dicarboxylate] the figure was 134.5 to 135.5 °C.

As to `COC(=O)C1=C(C)NC(C)=C(C(C)=O)C1c1ccccc1Br` (stereo not drawn) [Example 59, Methyl 5-acetyl-4-(2-bromophenyl)-1,4-dihydro-2,6-dimethylpyridine-3-carboxylate], the melting point was 146 to 148 °C.

A further data set concerns 7W WT APP751 CHO cells. Nature of the data set: Measurement of Aβ1-40 and Aβ1-42 by ELISA after treatment with calcium channel blockers (Example 1). The format is cell-based, Chinese hamster. The settings on record: 5 μM (FIG. 4). The procedure:
Chinese hamster ovary (CHO) cells, stably transfected with human APP751 (7W WT APP751 CHO cells) were used. See, e.g., Koo and Squazzo, J. Biol. Chem., Vol. 269, Issue 26, 17386-17389, July, 1994. The cells were maintained in DMEM medium supplemented with 10% fetal bovine serum and IX mixture of penicillin/streptomycin/fungizone/glutamine mixture (Cambrex, Md.) geneticin as selecting agent in 75 cm^2 cell culture flasks.
The 7W WT APP751 CHO cells were plated in 24-well cell culture plates in quadruplicate, containing 1 ml of culture medium, and treated with various calcium channel blocker compounds for 4 hours, 24 hours or 48 hours at 37° C. and 5% CO2. […] The culture medium was collected and diluted 5-fold for the 4 hours assay and 50-fold for the 24 hour assay before being assayed by ELISAs for Aβ1-40 and Aβ1-42, respectively. Concentrations of Aβ1-40 and Aβ1-42, expressed in pg/ml, were determined using commercially available ELISAs (Biosource, Calif.) in a colorimetric assay using labeled antibodies detected spectrophotometrically.
As to `Clc1ccc(C(c2ccc(Cl)cc2)[n+]2ccn(CC(OCc3ccc(Cl)cc3Cl)c3ccc(Cl)cc3Cl)c2)cc1.[Cl-]` (stereo not drawn) [Example R24571, 1-[bis(p-chlorophenyl)methyl]-3-[2-(2,4-di-chloro-p-(2,4-dichlorobenzyl-oxy)phenethyl)]-imidazolium chloride], the “concentration of Aβ1-40 compared to controls” value was “significantly decreased” and the “concentration of total β-amyloid compared to controls” value is listed as “significantly decreased”.

The data set is the same for the next values; noted with them: 30 μM (FIG. 3).
With `C#CCN1C(C)=C(C(=O)OC)C(c2cccc([N+](=O)[O-])c2)C(C(=O)OCC)=C1C` (stereo not drawn) [MRS 1845, N-propargylnitrendipine], the “concentration of Aβ1-40 compared to controls” value was “significantly decreased” and the “concentration of total β-amyloid compared to controls” value was “significantly decreased”.
